Data reported in PubChem BioAssay AID652 (University of Pittsburgh Molecular Library Screening Center, 2007).
Calls of active or inactive are those of the source. How the calls were made is not given here.

Target: Gag-Pol polyprotein (Human immunodeficiency virus type 1 group M subtype B (isolate HXB2)) (UniProt P04585)
Test: HIV-1 RT RNase H inhibitor potency, dose response, biochemical, probe assessment (AID 652)
Conditions: HIV-1 RT RNase H enzymatic assay

Going from `CCCCn1c(CN2C(=O)c3ccccc3C2=O)nc2ccccc2c1=O` to `COC(=O)C1=C(C)N=c2s/c(=C3\C(=O)Nc4ccccc43)c(=O)n2C1c1ccccc1` (configuration not stated), the IC50 falls from 12.4 µM to 5.94 µM (2.1-fold). The second is the more potent here.

Going from `Nc1c(C(=O)NCc2cccnc2)sc(=S)n1-c1ccccc1` to `C1=C(c2ccc(-c3ccccc3)cc2)Nc2ncnn2C1c1ccco1` (configuration not stated), the IC50 rises from 2.22 µM to 14.5 µM (6.5-fold). The first is the more potent here.

Going from `S=C(c1ccc(Cl)cc1)N1CCOCC1` to `CCOc1cc(C2C(C#N)=C(N)SC(N)=C2C#N)ccc1OCCN1CCOCC1`, the IC50 rises from 4.01 µM to 31.5 µM (7.9-fold). The first is the more potent here.

Compared with `CN(C)c1ccc(N=Cc2c(O)n(CCC3=CCCCC3)c(=O)[nH]c2=O)cc1`, `CN1CCN(C2=C(Cl)C(=O)N(c3ccc(Cl)c(Cl)c3)C2=O)CC1` is 7.1-fold higher in IC50: 3.8 µM for the first, 27.1 µM for the second. The first is the more potent here.

`COc1ccc(C(=S)N(C)C)cc1OC` and `CCCCCCn1c(SCC(=O)OC)nc2c1c(=O)[nH]c(=O)n2C` are within 1.5-fold of each other in IC50: 3.61 µM for the first, 3.11 µM for the second.

With `O=C(Nc1nc(-c2ccncc2)cs1)C1COc2ccccc2O1` (configuration not stated) the IC50 was > 50 µM (inactive).
In the case of `COCCn1c(SCCN2CCOCC2)nc2c1c(=O)[nH]c(=O)n2C`, the IC50 is reported as > 50 µM (inactive).

Same assay, conditions: HIV-1 RT RNase H enzymatic assay, inhibition, at 50 µM, stronger effect = higher value

Going from `COc1cc(-c2nnc3sc(-c4cccnc4)nn23)cc(OC)c1OC` to `COc1cccc(OC)c1-c1nn2c(-c3cc(-c4ccccc4)n[nH]3)nnc2s1`, the inhibition falls from 72.2% to 63.5%.

Compared with `CCCCn1c(CN2C(=O)c3ccccc3C2=O)nc2ccccc2c1=O`, `CCCc1nc2ccccc2c(=O)n1/N=C/c1ccc(O)c(O)c1` is lower in inhibition: 98% for the first, 97.3% for the second.

First: C=CCOc1ccc(CC2C(=O)N(C)C(=O)N(C)C2=O)cc1
Second: COCCn1c(-c2ccc(-c3ccccc3Cl)o2)nc2c1c(=O)[nH]c(=O)n2CC(C)C
The inhibition of the first is higher: 101% for the first, 85% for the second.

First: Cc1ccc2c(SCC(=O)NCc3ccco3)nc(-c3ccc(F)cc3)nc2c1
Second: CCOC(=O)CSc1nc2cc(C(=O)NCc3ccco3)ccc2c(=O)n1-c1ccc(F)cc1
The inhibition of the first is lower: 79.6% for the first, 91.8% for the second.

First: Cc1ccc(-c2cc(C(=O)NC3=NCCS3)c3cc(Br)ccc3n2)o1
Second: CC(C)c1ccc2oc(-c3ccc(NC(=O)c4ncn[nH]4)cc3)nc2c1
The inhibition of the first is lower: 92.4% for the first, 92.7% for the second.

Going from `COC(=O)c1ccc2c(c1)N(Cc1nc(-c3ccc(Cl)cc3)oc1C)C(=O)C1CCCN21` (configuration not stated) to `COC(=O)c1ccc2c(=O)[nH]c(CN3c4ccccc4CC3C)nc2c1` (configuration not stated), the inhibition falls from 78.9% to 62.3%.

Going from `C=CCn1c(SCC(=O)c2ccc(O)c(O)c2)nnc1-c1ccccc1OC` to `O=C(CCCn1c(SCC(=O)c2ccc(O)c(O)c2)nc2ccccc2c1=O)NCC1CCCO1` (configuration not stated), the inhibition rises from 97.5% to 99.4%.

First: Cc1cc(-c2nn3c(-c4ccccc4)nnc3s2)c2ccccc2n1
Second: c1ccc(Cc2nn3c(Cn4cnc5ccccc54)nnc3s2)cc1
The inhibition of the first is higher: 94.7% for the first, 91.2% for the second.

Going from `CCC1CC2(C)NC(=O)c3c(sc4c3CC(C)(C)OC4)N2C1=O` (configuration not stated) to `CC(C)Cc1cc(C(=O)Nc2sc3c(c2C#N)CCCC3)no1`, the inhibition rises from 82.8% to 94.6%.

Compared with `Fc1ccc(-c2ccc(-c3nn4c(-c5ccco5)nnc4s3)o2)cc1`, `c1csc(-c2nn3c(C4COc5ccccc5O4)nnc3s2)c1` (configuration not stated) is higher in inhibition: 88% for the first, 97.1% for the second.

Going from `CCOC(=O)c1c(NC(=O)c2ccc(-n3cnnn3)cc2)sc2c1CCCC2` to `CCOC(=O)c1sc(NC(=O)CSc2nnc(Cc3ccccc3)o2)c(C#N)c1C`, the inhibition rises from 88.3% to 98.3%.

Compared with `CC(=O)N(Cc1cc(=O)[nH]c2ccccc12)c1cccc(C)c1`, `COc1ccccc1CNC(=O)c1cc2c(=O)n(C)c3ccccc3c2n1C` is lower in inhibition: 89.9% for the first, 86% for the second.

Going from `Cc1cc(C)cc(OCC(=O)Nc2nonc2NC(=O)COc2cc(C)cc(C)c2)c1` to `Cc1cc(C)c(NC(=O)Cn2c(=O)n(Cc3ccco3)c(=O)c3ccccc32)c(C)c1`, the inhibition falls from 88% to 76.8%.

First: Nc1c(C(=O)NCc2cccnc2)sc(=S)n1-c1ccccc1
Second: O=C(CSc1nc2sc3c(c2c(=O)n1-c1ccccc1)CCCC3)NCc1ccco1
The inhibition of the first is lower: 73.5% for the first, 77.8% for the second.

Going from `Cc1ccc(/C=C/C2=Cc3c(sc(NC(=O)CSc4n[nH]c(N)n4)c3C#N)C(C)(C)C2)o1` to `N#Cc1c(SCC(=O)Nc2nccs2)nc2c(c1-c1ccco1)CCCC2`, the inhibition falls from 91.1% to 88.9%.

Going from `CCOc1cc(C2c3c(oc4cc(C)c(Cl)cc4c3=O)C(=O)N2Cc2ccco2)ccc1O` (configuration not stated) to `COC(=O)c1ccc2c(=O)n(Cc3ccco3)c(SCC(=O)Nc3ccc(C)c(Cl)c3)nc2c1`, the inhibition rises from 76.5% to 92.1%.

First: O=C(CSc1nc2ccccc2c2nc3ccccc3n12)NCc1ccco1
Second: O=c1/c(=C\c2cccn2-c2ccccc2)sc2nc3ccccc3n12
The inhibition of the first is lower: 67.7% for the first, 92% for the second.

First: CCCCCn1c(=O)c(C(=O)NCc2ccncc2)c(O)c2ccccc21
Second: Cc1ccccc1NC(=O)c1c(O)c2cccc3c2n(c1=O)CC3
The inhibition of the first is higher: 96% for the first, 84.6% for the second.

Going from `CCCCC(CC)Cn1c2nc3ccccc3nc2c2c(=N)oc(C)nc21` (configuration not stated) to `CC(C)CNC(=O)c1c(N)n(/N=C/c2ccccn2)c2nc3ccccc3nc12`, the inhibition falls from 95.5% to 95%.

Going from `C=CCn1c(N)c(C(=O)NCCC2=CCCCC2)sc1=S` to `CN(C)c1ccc(N=Cc2c(O)n(CCC3=CCCCC3)c(=O)[nH]c2=O)cc1`, the inhibition falls from 85.9% to 80.1%.

Compared with `O=C(c1ccccc1F)N1CCN(S(=O)(=O)c2ccc(S(=O)(=O)N3CCCCC3)cc2)CC1`, `O=C(Cn1c(=O)oc2cc(S(=O)(=O)N3CCCC3)ccc21)NC1CCCc2ccccc21` (configuration not stated) is lower in inhibition: 95.5% for the first, 58.8% for the second.

Going from `C=CCc1c(C)[nH]c(=S)c(C#N)c1C` to `Cc1cccc(NC(=O)Cn2c(C)c(C#N)c3ccccc32)c1C`, the inhibition rises from 67.2% to 89%.

First: S=C(c1ccc(Cl)cc1)N1CCOCC1
Second: OCCN1CCN(C(=S)c2ccc(Cl)c(Cl)c2)CC1
The inhibition of the first is lower: 73.5% for the first, 76.6% for the second.

Going from `CCCCC[C@H](O)/C=C/[C@H]1C=CC(=O)[C@@H]1C/C=C\CCCC(=O)O` to `CCCCCCn1c(SCC(=O)OC)nc2c1c(=O)[nH]c(=O)n2C`, the inhibition falls from 101% to 79.6%.

Compared with `c1c2c(cc3sc(N4CCOCC4)nc13)OCO2`, `CN(C)c1ccc2c(c1)N=C(c1ccco1)OP2(=S)N1CCOCC1` (configuration not stated) is higher in inhibition: 78.1% for the first, 92.9% for the second.

First: O=C(Nc1nc(-c2ccncc2)cs1)C1COc2ccccc2O1 (configuration not stated)
Second: c1ccc(-c2ccc(-c3ccccn3)nn2)nc1
The inhibition of the first is higher: 92.5% for the first, 52.4% for the second.

Compared with `c1ccc(Cc2nn3c(COc4ccccc4)nnc3s2)cc1`, `CCN(Cc1ccccc1)S(=O)(=O)c1ccc(C(=O)Nc2nnc(-c3ccccc3OC)o2)cc1` is higher in inhibition: 86.8% for the first, 95.8% for the second.

Compared with `CCC(C)Sc1nc2c(c(=O)[nH]c(=O)n2C)n1CC(O)COc1cccc2ccccc12` (configuration not stated), `C=CCSc1nc2c(c(=O)[nH]c(=O)n2C)n1C(C)C` is lower in inhibition: 95% for the first, 60.6% for the second.

Compared with `CCN1CCN(c2nc(C)nc3c2sc(=S)n3C)CC1`, `CN1CCN(C2=C(Cl)C(=O)N(c3ccc(Cl)c(Cl)c3)C2=O)CC1` is lower in inhibition: 76.3% for the first, 61.9% for the second.

Compared with `CCOc1cc(C2C(C#N)=C(N)SC(N)=C2C#N)ccc1OCCN1CCOCC1`, `Cc1cc(C)c2c(=O)n(CC(=O)NCCCN3CCOCC3)sc2n1` is higher in inhibition: 41.5% for the first, 80.5% for the second.

First: COCCn1c(SCCN2CCOCC2)nc2c1c(=O)[nH]c(=O)n2C
Second: Cc1sc2nc(C(C)Nc3ccccc3N3CCOCC3)[nH]c(=O)c2c1C (configuration not stated)
The inhibition of the first is lower: 40% for the first, 66.5% for the second.

First: C1=C(c2ccc(-c3ccccc3)cc2)Nc2ncnn2C1c1ccco1 (configuration not stated)
Second: CN(c1ccccc1)c1ccc(/C=c2\s/c(=C(/C#N)C(=O)C(C)(C)C)n(Cc3ccco3)c2=O)cc1
The inhibition of the first is lower: 48.6% for the first, 92.9% for the second.

Compared with `CC(C)c1nnc(NC(=O)c2c(O)c3cccc4c3n(c2=O)CCC4)s1`, `O=C(O)c1ccc2c(c1)NC(=O)C(N1CCCC1)S2` (configuration not stated) is higher in inhibition: 64.9% for the first, 75.8% for the second.

Going from `COc1ccc(C(=S)N(C)C)cc1OC` to `CCc1ccccc1N1CSC2=C(C#N)C(c3cc(OC)c(OC)cc3OC)CC(=O)N2C1` (configuration not stated), the inhibition rises from 78.6% to 98.3%.

Going from `COc1ccc(Cn2nnnc2C(c2cccnc2)N2CCN(c3ccc(O)cc3)CC2)cc1` (configuration not stated) to `CCC(C)c1ccc2oc(-c3ccc(NC(=O)c4ncn[nH]4)cc3)nc2c1` (configuration not stated), the inhibition rises from 43% to 94.2%.

First: CCOC(=O)c1c(N)sn(-c2ccccc2C)c1=S
Second: COc1cc(C2CC(=O)N3CN(c4ccccc4C)CSC3=C2C#N)cc(OC)c1OC (configuration not stated)
The inhibition of the first is lower: 83.4% for the first, 100% for the second.

Going from `COC(=O)C1=C(C)N=c2s/c(=C3\C(=O)Nc4ccccc43)c(=O)n2C1c1ccccc1` (configuration not stated) to `O=C(NCc1ccco1)c1cc2cc3ccc(Cl)cc3nc2o1`, the inhibition rises from 85.1% to 91.6%.

With `Nc1nnc(CSCc2ccc(F)cc2)s1` the inhibition was 51.7%.
